Experimental data as given in patent publication US5874461A, “Use of Nebivolol as an anti-atherogenic” (priority 1995, dated 1999).

Assays:
[1] = test system: primary embryonic hippocampal cultures; assay: VitE complementation (vitE depletion) test on primary neuronal cultures; assay type: cell-based, rats; settings: for rescue of survival of vitE depleted cultures: 10^-7 M and 10^-6 M
Description: Primary embryonic hippocampal cultures were prepared essentially as described previously (Pauwels et al., Van Aschouw, H. P., Peeters, L., Moeremans, M., Leysen, J. E. (1992) Chronic treatment with sabeluzole protects cultured rat brain neurons from the neurotoxic effects of excitatory amino acids. Synapse, 12:271-280). Hippocampal formations of rats at embryonic day 17 were dissected and dissociated in 0.05% trypsin, 0.1 mg/ml DNase I in DMEM (Dulbecco Modified Eagle Medium). Heat-inactivated horse serum (HS) was added to a concentration of 4%, and the cells were centrifuged, washed with DMEM, and resuspended in DMEM/Ham's F12 (3:1) containing 10% HS. The cells were plated at a density of 4×10^5 cells/cm^2 in poly L-lysine (0.001%) precoated multiwell-24 plates. On day 1 in culture, the medium was changed to chemically defined CDM-R12 medium (DMEM-HEPES/Ham's F12 (3:1) containing 0.26% bovine serum albumin, 30 nM sodium selenite, 3 nM 3,3',5 triiodo-L-thyronine, 0.35 μM retinol, 0.3 μM retinol acetate, 2.3 μM DL-a-tocopherol, 2.1 μM DL-a-tocopherol acetate, 3.6 μM linolenic acid, 3.6 μM linoleic acid, 0.125% human transferrin, […], 57.7 nM corticosterone, 49 U/I insulin, 0.4 μM biotin, 10 μM L-carnitine, 83 μM D(+)-galactose, 3.3 μM glutathione, 10 μM ethanolamine, 0.1 mM putrescine; Romijn, H. J., van Huizen, F., Wolters, P. S. (1984) Towards an improved serum-free, chemically defined medium for long-term culturing of cerebral cortex tissue. Neurosci. Behav. Rev., 8:301-334). Acute and prolonged pretreatment of the, cultures was essentially as described previously (Pauwels et al., 1992). Drugs were dissolved, and diluted in 10% or 1% hydroxypropyl-β-cyclodextrin such that the final concentrations of the solvent in the acute and chronic exposures were 0.1% and 0.01% respectively. Compound A as used in the following examples is [(RRSR)+(RRRS)+(SSSR) +(SSRS)]-α-[[[2-(chroman-2-yl)-2-hydroxy-ethyl]amino]methyl]-6-hydroxy-2-chromanmethanol ethanedioate (1:1).
For vitE depletion experiments, primary cultures were set up as above, but on day 1 in culture, the medium was changed to chemically defined CDM-R12 medium with (control) or without DL-a-tocopherol (vitE) and DL-a-tocopherol acetate, in the presence or absence of test coumpound. […] Addition of compounds could rescue the cultures. […] The EC50 for complementation of vitE refers to the concentration of the compound required to restore culture survival to 50% of the survival seen for the culture grown in vitE supplemented medium. Seven concentrations of each compound were tested in triplicate, the number of independent experiments is indicated in the table, and the mean EC50 -value±SD was calculated.
Primary neuronal cultures depend on the presence of the antioxidant vitE in the culture medium for survival in vitro. When vitE depleted medium is used to grow the cultures, survival drops to ±20% of control. Compounds with antioxidative properties are able to complement the lack of vitE, and as such can when added to the culture medium, rescue vitE devoid cultures. Several nebivolol derivatives were tested at 10^-7 M and 10^-6 M in the vitE depletion test on primary neuronal cultures.
When nebivolol derivatives were administered during culture, the cultures could be rescued to a certain extent. 100% vitE complementation refers to the survival of a cell culture which is indifferent from a vitE containing cell culture.
When hydroxynebivolol was administered during culture, the cultures could be rescued. The EC50 refers to the concentration at which the culture is rescued for 50%, as measured by cytoplasmic LDH activity.

[2] = test system: β-1; settings: EP-0,334,429; cited from earlier work
[3] = atenolol, propanolol, prazosin, hydralazine and its own (SRRR) enantiomer; EP-0,334,429; cited from earlier work

SMILES: O[C@H](CNC[C@@H](O)[C@H]1CCc2cc(F)ccc2O1)[C@@H]1CCc2cc(F)ccc2O1 [Compound 1-nebivolol, (SRRR) α,α'-iminobis(methylene)bis[6-fluoro-2-chroman-methanol]]
- % vitE complementation ([1]; 10^-6 M): 24 ± 26%
- % vitE complementation ([1]; 10^-7 M): 22 ± 20%
- rescue of survival of vitE depleted cultures [1]: able to rescue survival of vitE depleted cultures to a certain extent
- β-1 blocking activity [2]: potent and selective β-1 blocking agent

SMILES: O[C@@H](CNC[C@H](O)[C@H]1CCc2cc(F)ccc2O1)[C@@H]1CCc2cc(F)ccc2O1 [d-nebivolol, (RSSS) α,α'-iminobis(methylene)bis[6-fluoro-2-chroman-methanol]]
- % vitE complementation ([1]; 10^-6 M): 19 ± 22%
- % vitE complementation ([1]; 10^-7 M): 12 ± 17%
- rescue of survival of vitE depleted cultures [1]: able to rescue survival of vitE depleted cultures to a certain extent
- potentiation of antihypertensive agents [3]: potentiator for a series of antihypertensive agents
- β-1 blocking activity [2]: not to be a potent β-1 blocking agent
